How the values were obtained:
[1] = biological target: T1, GABAA receptor α1/β1 (α1 subunit) (Rattus norvegicus, UniProt P15431+P62813, P15431:DEL334-439/P15431:INS334GT/P62813:DEL341-408/P62813:INS341T); experiment: radioligand saturation binding by scintillation proximity assay on purified receptor in L-MNG
T1 construct: gene Gabra1; purified α1/β1 receptor with M3/M4 loop truncations (α1-LT: Y341-P408 replaced with Thr; β1-LT: K334-K439 replaced with Gly-Thr), C-terminal His8 tag; with GABAA receptor β1 subunit (Gabrb1, P15431)
T1 sequence (P62813 with tags, fused parts or gaps DEL341-408/INS341T): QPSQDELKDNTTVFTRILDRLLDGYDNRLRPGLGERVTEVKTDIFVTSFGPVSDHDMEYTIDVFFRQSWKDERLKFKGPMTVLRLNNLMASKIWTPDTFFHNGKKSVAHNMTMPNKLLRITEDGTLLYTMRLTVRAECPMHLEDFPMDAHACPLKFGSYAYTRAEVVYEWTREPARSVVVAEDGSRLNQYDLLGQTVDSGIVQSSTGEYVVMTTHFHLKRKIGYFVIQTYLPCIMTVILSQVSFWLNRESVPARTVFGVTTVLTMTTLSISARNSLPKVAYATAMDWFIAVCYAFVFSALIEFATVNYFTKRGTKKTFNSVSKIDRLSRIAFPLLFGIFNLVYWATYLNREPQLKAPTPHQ
T1 sequence (P15431 with tags, fused parts or gaps DEL334-439/INS334GT): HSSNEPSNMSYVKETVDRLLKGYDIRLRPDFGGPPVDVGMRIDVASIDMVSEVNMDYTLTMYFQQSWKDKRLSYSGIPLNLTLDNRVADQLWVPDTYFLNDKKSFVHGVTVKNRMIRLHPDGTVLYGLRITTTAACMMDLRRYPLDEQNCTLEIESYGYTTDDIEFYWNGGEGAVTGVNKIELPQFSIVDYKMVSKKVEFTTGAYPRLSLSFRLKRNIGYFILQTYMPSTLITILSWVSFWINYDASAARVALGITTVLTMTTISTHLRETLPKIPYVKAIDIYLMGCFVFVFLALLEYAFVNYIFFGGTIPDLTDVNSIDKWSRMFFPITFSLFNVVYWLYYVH

[2] = biological target: the molecule itself; experiment: SEC; fluorescence detection SEC (FSEC) of 8-12 oocytes solubilised with 40 mM C12M; Superose6 10/300 GL in TBS pH 8.0, 1 mM C12M, 1 mM EDTA; GFP fluorescence of the tagged subunit followed; ferritin and EGFP as standards

## NCc1cc(=O)[nH]o1 [muscimol]
[1]
  Kd: 24 ± 1.1 nM

B1: GluClα-EGFP (α subunit of the glutamate-gated chloride channel from C. elegans, EGFP in the M3/M4 loop) (receptor, UniProt G5EBR3 21-461, looked up)
chain: QQARTKSQDIFEDDNDNGTTTLESLARLTSPIHIPIEQPQTSDSKILAHLFTSGYDFRVRPPTDNGGPVVVSVNMLLRTISKIDVVNMEYSAQLTLRESWIDKRLSYGVKGDGQPDFVILTVGHQIWMPDTFFPNEKQAYKHTIDKPNVLIRIHNDGTVLYSVRISLVLSCPMYLQYYPMDVQQCSIDLASYAYTTKDIEYLWKEHSPLQLKVGLSSSLPSFQLTNTSTTYCTSVTNTGIYSCLRTTIQLKREFSFYLLQLYIPSCMLVIVSWVSFWFDRTAIPARVTLGVTTLLTMTAQSAGINSQLPPVSYIKAIDVWIGACMTFIFCALLEFALVNHIANKQGVERKARTEREKAEIPLLQNLHNDVPTKVFNQEEKVRTVPLNRRQMNSFLNLLETKTEWNDISKRVDLISRALFPVLFFVFNILYWSRFGQQNVLF
notes: glutamate-gated chloride channel α subunit (GluClα), C. elegans; source: Xenopus oocytes injected with synthetic mRNA, in C12M-solubilised oocytes; not shown: EGFP, internal (M3/M4 loop)
[2]
  stoichiometry N: 5

Source: publication PMC6054424, “Expression and purification of a functional heteromeric GABAA receptor for structural studies” (PLoS ONE, 2018)
